Measured values as given in PMC6112376, “Comprehensive Analyses and Prioritization of Tox21 10K Chemicals Affecting Mitochondrial Function by in-Depth Mechanistic Studies” (Environmental Health Perspectives, 2018).
Like-named read-outs stand apart in the source and are kept apart here.

Columns and labels:
hNSC = assay: MMP assay in human neural stem cells (hNSC); assay type: cell-based; conditions: Homo sapiens, Neural stem cell, 1 h, read-out: hNSC IC50 (MMP)
HepG2 cells [1] = assay: ROS-Glo hydrogen peroxide (ROS) assay; assay type: cell-based, human
HepG2 cells [2] = assay: Intracellular ATP content (cell viability) assay; assay type: cell-based, human
[3] = tested on: p53 (p53-bla HCT-116 cells); assay: p53 β-lactamase reporter gene assay; assay type: cell-based, human; conditions: 16 h incubation; mean±SD of three experiments
[4] = tested on: Nrf2/ARE (ARE-bla HepG2 cells); assay: ARE β-lactamase reporter gene assay; assay type: cell-based, human; conditions: 16 h incubation; mean±SD of three experiments
[5] = tested on: isolated rat liver mitochondria; assay: Oxygen consumption, Clark-type oxygen electrode; assay type: biochemical
[6] = tested on: HeLa cells expressing YFP-Parkin; assay: Parkin translocation assay; assay type: cell-based, human
rat primary hepatocytes [7] = tested on: rat primary hepatocytes
HepG2 cells [8] = conditions: cited from earlier work
HepG2 cells [9] = assay: cells; conditions: Homo sapiens
[10] = tested on: Caenorhabditis elegans strain PE255; assay: In vivo C. elegans ATP status assay
rat primary hepatocytes [11] = assay: MMP assay in rat primary hepatocytes; conditions: Rattus norvegicus, Hepatocyte
[12] = tested on: Caenorhabditis elegans (Bristol N2); assay: C. elegans larval development and growth assay

O=C(Nc1ccccc1)Nc1ccccc1 [Diphenylurea]
IC50 (hNSC): 12.1 µM
ROS (HepG2) EC50 (HepG2 cells [1]): Inactive
ATP (HepG2, galactose) IC50 (HepG2 cells [2]): Inactive
ATP (HepG2, glucose) IC50 (HepG2 cells [2]): Inactive
p53 (HCT-116) EC50 [3]: Inactive
ARE (HepG2) EC50 [4]: Inactive
Potential Mechanism [5]: Uncoupler at low concentrations (20 µM), and Uncoupler + inhibitor at high concentrations (100 µM)
I-ADP, % of control (O2 consumption rate) ([5]; 0.8 µM): 97 (36.2) % of control
I-sub, % of control (O2 consumption rate) ([5]; 0.8 µM): 105 (11.3) % of control
II-ADP, % of control (O2 consumption rate) ([5]; 0.8 µM): 91 (57.2) % of control
II-sub, % of control (O2 consumption rate) ([5]; 0.8 µM): 106 (19.6) % of control
I-ADP, % of control (O2 consumption rate) ([5]; 4 µM): 93 (34.6) % of control
I-sub, % of control (O2 consumption rate) ([5]; 4 µM): 104 (11.2) % of control
II-ADP, % of control (O2 consumption rate) ([5]; 4 µM): 83 (52.5) % of control
II-sub, % of control (O2 consumption rate) ([5]; 4 µM): 97 (18.0) % of control
I-ADP, % of control (O2 consumption rate) ([5]; 20 µM): 96 (35.6) % of control
I-sub, % of control (O2 consumption rate) ([5]; 20 µM): 144 (15.5) % of control
II-ADP, % of control (O2 consumption rate) ([5]; 20 µM): 91 (57.6) % of control
II-sub, % of control (O2 consumption rate) ([5]; 20 µM): 129 (23.9) % of control
I-ADP, % of control (O2 consumption rate) ([5]; 100 µM): 38 (19.1) % of control
I-sub, % of control (O2 consumption rate) ([5]; 100 µM): 167 (35.8) % of control
II-ADP, % of control (O2 consumption rate) ([5]; 100 µM): 25 (15.1) % of control
II-sub, % of control (O2 consumption rate) ([5]; 100 µM): 55 (19.1) % of control
Parkin recruitment [6]: Inactive
MMP assays efficacy (%) Rat Hepatocytes (rat primary hepatocytes [7]): -72±30%
Rat hepatocytes (efficacy) (MMP) (rat primary hepatocytes [7]): 15.4±2.88 ( −117±8.21 ) %
MMP assays efficacy (%) qHTS-HepG2 (HepG2 cells [8]): -111±9%
IC50 (HepG2 cells [8]; read-out: MMP assays IC50 (µM) qHTS-HepG2): 1.6 ± 0.74 µM
IC50 (HepG2 cells [9]; HepG2, 1 h, read-out: HepG2 IC50 Galactose (MMP)): 10.3 µM
IC50 (HepG2 cells [9]; HepG2, 1 h, read-out: HepG2 IC50 Glucose (MMP)): 7.73 µM
IC50 (HepG2 cells [9]; HepG2, read-out: MMP assays IC50 (µM) HepG2): 2.51 µM
Emax (HepG2 cells [9]; HepG2, read-out: MMP assays efficacy (%) HepG2): 131%
LUM: mean difference in luminescence (ATP content) relative to plate controls ([10]; 0.5 µM): 0.08612
LUM: mean difference in luminescence (ATP content) relative to plate controls ([10]; 1 µM): 0.1632
LUM: mean difference in luminescence (ATP content) relative to plate controls ([10]; 5 µM): 0.3729
LUM: mean difference in luminescence (ATP content) relative to plate controls ([10]; 10 µM): 1.1516
LUM: mean difference in luminescence (ATP content) relative to plate controls ([10]; 25 µM): 1.501
LUM: mean difference in luminescence (ATP content) relative to plate controls ([10]; 50 µM): 1.222
LUM: mean difference in luminescence (ATP content) relative to plate controls ([10]; 75 µM): 0.9702
LUM: mean difference in luminescence (ATP content) relative to plate controls ([10]; 100 µM): 0.9744
effect on ATP content (in words) ([10]; 0.5–100μM): statistically significant decreases in ATP content
minimal effective concentration ([10]; Caenorhabditis elegans, read-out: LEC LUM: lowest effect concentration for luminescence, a measure of nematode ATP content): 10 µM
IC50 (rat primary hepatocytes [11]; 1 h, read-out: Rat hepatocytes IC50 (MMP)): 15.4 µM
IC50 (rat primary hepatocytes [11]; read-out: MMP assays IC50 (µM) Rat Hepatocytes): 8.46 ± 2.39 µM
EXT: mean difference in nematode size relative to plate controls ([12]; 0.5 µM): 0.0636
EXT: mean difference in nematode size relative to plate controls ([12]; 1 µM): 0.005834
EXT: mean difference in nematode size relative to plate controls ([12]; 5 µM): -0.06608
EXT: mean difference in nematode size relative to plate controls ([12]; 10 µM): 0.006337
EXT: mean difference in nematode size relative to plate controls ([12]; 25 µM): 0.05471
EXT: mean difference in nematode size relative to plate controls ([12]; 50 µM): 0.1792
EXT: mean difference in nematode size relative to plate controls ([12]; 75 µM): 0.1069
EXT: mean difference in nematode size relative to plate controls ([12]; 100 µM): 0.0228
effect on larval growth (in words) ([12]; 0.5–100μM): did not affect growth
